Assay results from patent publication US10995103B2, “Substituted boric acid compound, pharmaceutical composition comprising same, and application thereof” (Shenzhen TargetRx, Inc., priority 2016, dated 2021).

Legend:
[1] = Metabolic stability evaluation in human liver microsomes; format: in vitro ADME; conditions: pH 7.4, human liver microsomes 0.5 mg/mL, compound 1 μM, NADPH, 37° C.; for microsomal CLint at 1 μM: read-out: CLint, experiment in human liver microsomes; for half-life at 1 μM: read-out: t1/2, experiment in human liver microsomes
Description: (§1) Experiments in microsomes: Human liver microsomes: 0.5 mg/mL, Xenotech; Rat liver microsomes: 0.5 mg/mL, Xenotech; Coenzyme (NADPH/NADH): 1 mM, Sigma Life Science; Magnesium chloride: 5 mM, 100 mM phosphate buffer (pH 7.4).
(§2) Preparation of stock solution: A certain amount of powder of the example compounds was accurately weighed and dissolved in DMSO to 5 mM respectively.
(§3) Preparation of phosphate buffer (100 mM, pH7.4): A pre-formulated 150 mL potassium dihydrogen phosphate (0.5 M) was mixed with 700 mL of dibasic potassium phosphate (0.5M). The pH of the mixture was adjusted to 7.4 with 0.5 M dibasic potassium phosphate solution. The mixture was diluted 5-fold with ultrapure water before use, and magnesium chloride was added to obtain the phosphate buffer (100 mM) containing 100 mM potassium phosphate, 3.3 mM magnesium chloride, pH 7.4.
(§4) A NADPH regeneration system solution (containing 6.5 mM NADP, 16.5 mM G-6-P, 3 U/mL G-6-P D, 3.3 mM magnesium chloride) was prepared and placed on wet ice before use.
(§5) Preparation of stop solution: acetonitrile solution containing 50 ng/mL propranolol hydrochloride and 200 ng/mL tolbutamide (internal standard). 25057.5 μL of phosphate buffer (pH 7.4) was taken into a 50 mL centrifuge tube, to which 812.5 μL human liver microsomes were added, respectively, and mixed to obtain a liver microsome dilution solution with a protein concentration of 0.625 mg/mL. 25057.5 μL of phosphate buffer (pH 7.4) was taken into a 50 mL centrifuge tube, to which 812.5 μL SD rat liver microsomes were added, respectively, and mixed to obtain a liver microsome dilution solution with a protein concentration of 0.625 mg/mL.
(§6) Incubation of the samples: The stock solution of the respective compounds was respectively diluted to 0.25 mM with an aqueous solution containing 70% acetonitrile, which were used as working solutions, ready for use. 398 μL of the dilution solution of human liver microsomes or rat liver microsomes were added to a 96-well incubation plate (N=2), respectively, and 2 μL of 0.25 mM working solution was added and mixed.
(§7) Metabolic stability assay: 300 μL of pre-chilled stop solution was added to each well of a 96-well deep well plate and placed on ice as the stop plate. The 96 well incubation plate and NADPH regeneration system were placed in a 37° C. water bath box, shaken at 100 rpm and pre-incubated for 5 min. 80 μL of incubation solution was taken out from each well of the incubation plate and added to the stop plate, mixed, and replenished with 20 μL of NADPH regeneration system solution as a 0-min sample. 80 μL of NADPH regeneration system solution was added to each well of the incubation plate to start the reaction and counting was started. […] 100 μL of the reaction solution was taken at 10, 30, and 90 min after reaction, respectively, added to the stop plate, and vortexed for 3 minutes to terminate the reaction. The stop plate was centrifuged for 4 min at 5000× g at 4° C. 100 μL of the supernatant was added to a 96-well plate to which 100 μL of distilled water was previously added, mixed, and analyzed by LC-MS/MS.
(§8) Data analysis: The peak areas of the corresponding compounds and internal standard were detected by LC-MS/MS system, and the ratio of the peak area of the compounds to the internal standard was calculated.
(§9) The metabolic stability in human and rat liver microsomes was evaluated by simultaneously testing and comparing the compounds disclosed herein and the non-deuterated compound. The non-deuterated compound Ixazomib was used as a control in the table.

[2] = Metabolic stability evaluation in rat liver microsomes; format: in vitro ADME; conditions: SD, pH 7.4, rat liver microsomes 0.5 mg/mL, compound 1 μM, NADPH, 37° C.; for microsomal CLint at 1 μM: read-out: CLint, experiment in rat liver microsomes; for half-life at 1 μM: read-out: t1/2, experiment in rat liver microsomes
Description: as §1, §2, §3, §4, §5, §6, §7, §8, §9

CC(C)C[C@H](NC(=O)CNC(=O)c1cc(Cl)ccc1Cl)B(O)O [Ixazomib, reference compound]
microsomal CLint at 1 μM [1]: 49.4 µL/min/mg | half-life at 1 μM [1]: 28.1 min | microsomal CLint at 1 μM [2]: 97.3 µL/min/mg | half-life at 1 μM [2]: 14.3 min

[2H]C([2H])(C(C)C)[C@H](NC(=O)CNC(=O)c1cc(Cl)ccc1Cl)B(O)O [Compound I-3, (R)-(1-(2-(2,5-dichlorobenzamido)acetamido)-2,2-d2-3-methylbutyl)boronic Acid]
microsomal CLint at 1 μM [1]: 47.3 µL/min/mg | half-life at 1 μM [1]: 29.3 min

[2H]C([2H])(C(C)C)[C@]([2H])(NC(=O)CNC(=O)c1cc(Cl)ccc1Cl)B(O)O [Compound I-5, (R)-(1-(2-(2,5-dichlorobenzamido)acetamido)-1-d-2,2-d2-3-methylbutyl)boronic Acid]
microsomal CLint at 1 μM [1]: 47.3 µL/min/mg | half-life at 1 μM [1]: 29.3 min | microsomal CLint at 1 μM [2]: 97.8 µL/min/mg | half-life at 1 μM [2]: 14.2 min

[2H]C([2H])(NC(=O)c1cc(Cl)ccc1Cl)C(=O)N[C@@H](CC(C)C)B(O)O [Compound I-1, (R)-(1-(2-(2,5-dichlorobenzamido)-2,2-d2-acetamido)-3-methylbutyl)boronic acid]
microsomal CLint at 1 μM [2]: 81.3 µL/min/mg | half-life at 1 μM [2]: 17.1 min

[2H]C([2H])(NC(=O)c1cc(Cl)ccc1Cl)C(=O)N[C@@]([2H])(CC(C)C)B(O)O [Compound I-4, (R)-(1-(2-(2,5-dichlorobenzamido)-2,2-d2-acetamido)-1-d-3-methylbutyl)boronic Acid]
microsomal CLint at 1 μM [1]: 48.3 µL/min/mg | half-life at 1 μM [1]: 28.7 min | microsomal CLint at 1 μM [2]: 90 µL/min/mg | half-life at 1 μM [2]: 15.4 min

[2H][C@@](CC(C)C)(NC(=O)CNC(=O)c1cc(Cl)ccc1Cl)B(O)O [Compound I-2, (R)-(1-(2-(2,5-dichlorobenzamido)acetamido)-1-d-3-methylbutyl)boronic Acid]
microsomal CLint at 1 μM [1]: 46.5 µL/min/mg | half-life at 1 μM [1]: 29.8 min | microsomal CLint at 1 μM [2]: 90.5 µL/min/mg | half-life at 1 μM [2]: 15.3 min
